Where two headings read alike, the source gives them in different places. Where only a bound is given, the exact number is not on record here.

For one assay, the target named is T1, ovine COX-1 (Ovis aries, UniProt P05979).
T1 construct: COX-1 was purified from ram seminal vesicles obtained from Oxford Biomedical Research, Inc; tissue Oxford Biomedical Research, Inc. (Oxford, Michigan) (supplier of the tissue); host or cells: ram seminal vesicles
T1 sequence (P05979 25-600): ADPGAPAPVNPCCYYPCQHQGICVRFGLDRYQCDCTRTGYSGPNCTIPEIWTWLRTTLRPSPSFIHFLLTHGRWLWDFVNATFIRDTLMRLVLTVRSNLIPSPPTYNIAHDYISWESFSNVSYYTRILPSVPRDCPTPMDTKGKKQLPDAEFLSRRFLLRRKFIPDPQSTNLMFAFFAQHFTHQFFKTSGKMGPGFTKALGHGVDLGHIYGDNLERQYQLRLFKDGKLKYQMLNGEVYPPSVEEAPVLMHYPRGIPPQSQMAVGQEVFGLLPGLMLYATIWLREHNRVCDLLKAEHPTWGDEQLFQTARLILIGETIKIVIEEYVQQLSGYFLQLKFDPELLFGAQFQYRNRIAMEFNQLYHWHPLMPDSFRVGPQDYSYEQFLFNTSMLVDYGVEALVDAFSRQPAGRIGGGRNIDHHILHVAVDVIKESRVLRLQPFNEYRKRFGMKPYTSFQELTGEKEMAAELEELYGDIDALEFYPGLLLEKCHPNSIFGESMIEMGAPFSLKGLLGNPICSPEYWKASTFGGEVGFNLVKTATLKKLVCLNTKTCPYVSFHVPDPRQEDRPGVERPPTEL
As to the kind of experiment: TLC assay, inhibition of purified ovine COX-1. The format is biochemical. Particulars: ovine COX-1 (44 nM), inhibitor 20 min, then 1-14C-AA (50 μM) at 37° C. for 30 sec, duplicate.

Assay [1] relates to carrageenan-induced rat foot pad edema. Put plainly: Rat foot pad edema model (carrageenan). The format is in vivo. Particulars: 2 mg/kg orally.
Experimental: Rats were injected with carrageenan, which triggers a rapid edema (swelling) within 3 hours that can be quantitatively measured by volume displacement.
In these experiments, the carrageenan that was injected was in 0.1 mL of aqueous saline so that 0.1 mL volume increase was due to the injection alone.
More specifically, male Sprague-Dawley rats (150 g) received a subplantar injection of carrageenan (0.1 mL of a 1% suspension of carrageenan in sterile aqueous saline) into the right hind footpad while mildly anesthetized with methoxyflurane. […] The ipsilateral footpad volume (mL) was measured with a water displacement plethysmometer at time=3 hours post-injection and compared to the time=0 pre-injection paw volume for edema calculations.
Assay [2] has as its target T2, COX-2 (Homo sapiens, UniProt P35354).
T2 sequence (P35354 18-604): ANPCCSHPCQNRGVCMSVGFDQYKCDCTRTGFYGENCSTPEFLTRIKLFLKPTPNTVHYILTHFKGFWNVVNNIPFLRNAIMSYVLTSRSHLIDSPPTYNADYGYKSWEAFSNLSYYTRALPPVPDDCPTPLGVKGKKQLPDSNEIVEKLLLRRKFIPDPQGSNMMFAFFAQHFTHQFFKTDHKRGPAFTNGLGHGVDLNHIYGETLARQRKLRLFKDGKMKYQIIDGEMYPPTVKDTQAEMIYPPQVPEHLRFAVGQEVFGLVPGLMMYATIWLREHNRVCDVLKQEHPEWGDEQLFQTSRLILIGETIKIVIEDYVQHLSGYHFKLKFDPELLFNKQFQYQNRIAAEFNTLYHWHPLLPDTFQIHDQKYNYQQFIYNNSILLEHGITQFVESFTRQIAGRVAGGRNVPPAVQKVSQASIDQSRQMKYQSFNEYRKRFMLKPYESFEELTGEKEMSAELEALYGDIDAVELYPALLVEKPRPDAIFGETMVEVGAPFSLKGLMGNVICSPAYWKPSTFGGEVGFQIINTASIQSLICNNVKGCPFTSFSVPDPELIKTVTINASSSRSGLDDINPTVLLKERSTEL
As to the kind of experiment: TLC assay, inhibition of purified human COX-2. The format is biochemical. Also noted: made in house; host or cells: insect cells (baculovirus vectors).

The next assay concerns COX-1. To be noted: background b24; cited from earlier work.
Another assay deals with tumors. Particulars: background b24; cited from earlier work.
The target of assay [3] is T2, COX-2. Particulars: background b24; cited from earlier work.
In assay [4] the test system is HCA-7 (human colon adenocarcinoma, colony 29) cells. As to the kind of experiment: Human tumor xenograft assay in nude mice. Type of assay: in vivo. Particulars: HCA-7, 5 mg/kg intraperitoneally 3 times per week. The method, then: Tumor volume was determined by external measurement with an electronic caliper.

As for `COc1ccc2c(c1)c(CC(=O)N(C)CCc1ccccc1)c(C)n2C(=O)c1ccc(Cl)cc1` [Compound 9, lndomethacin-N-methylphenethyl amide], at ovine COX-1, the IC50 (commonly the concentration that gives 50% inhibition) was greater than 66 µM.

On to `COc1ccc2c(c1)c(CC(=O)Nc1ccc(NC(C)=O)cc1)c(C)n2C(=O)c1ccc(Cl)cc1` [Compound 14, Indomethacin-N-(4-acetamidophenyl) amide], for which the “effect on swelling / inflammation (in words)” value in assay [1] is on record as “dramatic decrease in swelling”.

Turning to `COc1ccc2c(c1)c(CC(=O)Nc1cccnc1)c(C)n2C(=O)c1ccc(Cl)cc1` [Compound 20, Indomethacin-N-(3-pyridyl) amide], at COX-2 [2], the “COX-2 inhibition (in words)” value was “potent and selective COX-2 inhibition”.

`COc1ccc2c(c1)c(CC(=O)O)c(C)n2C(=O)c1ccc(Cl)cc1` [Indomethacin, indomethacin, reference compound]: the “effect on swelling / inflammation (in words)” value in assay [1] is reported as “comparable reduction in inflammation”.

Regarding `CSc1ccc(/C=C2/C(C)=C(CC(=O)O)c3cc(F)ccc32)cc1` [sulindac sulfide], the “more potent inhibitor against COX-1 than COX-2” value with COX-1 is recorded as 40 fold. Further, the “inhibition of tumors (in words)” value in the assay with tumors is recorded as “exhibits inhibition of tumors”.

For the compound `CC1=C(CC(=O)O)c2cc(F)ccc2/C1=C\c1ccc(S(C)(=O)=O)cc1` [sulindac sulfone], the “COX-1 inhibition (in words)” value with COX-1 is reported as “does not inhibit”. In addition, the “COX-2 inhibition (in words)” value on COX-2 [3] is reported as “does not inhibit”. Moreover, in the assay on tumors, the “inhibition of tumors (in words)” value was “exhibits inhibition of tumors”.

“Indomethacin-N-2-(2-L-methoxycarbonylethyl) amide [Compound 25]” returned an IC50 on COX-2 [2] (human COX-2 (66 nM), inhibitor 20 min, then 1-14C-AA (50 μM) at 37° C. for 30 sec, duplicate) of 0.4 µM.

As for “Indomethacin-N-(2-phenethyl) amide [Compound 11]”, the “tumor growth (in words)” value in assay [4] was “significantly inhibited tumor growth”. For the same compound, the “tumor vol. cm^3” value in assay [4] (day of explant 22) is 0.10 cm^3; in assay [4] (day of explant 25), 0.11 cm^3; in assay [4] (day of explant 27), 0.13 cm^3; in assay [4] (day of explant 29), 0.14 cm^3; in assay [4] (day of explant 31) it was 0.17 cm^3.
